Where a name gives a salt, the structure may show the parent alone. Bounds are passed on as bounds.

As a reminder, the IC50 is the midpoint of a concentration-inhibition curve.

In the assay the target is T1, recombinant human MetAP2 (Homo sapiens, UniProt P50579).
T1 construct: Flag; made in house; host or cells: Sf9 insect cells
T1 sequence (P50579 whole entry): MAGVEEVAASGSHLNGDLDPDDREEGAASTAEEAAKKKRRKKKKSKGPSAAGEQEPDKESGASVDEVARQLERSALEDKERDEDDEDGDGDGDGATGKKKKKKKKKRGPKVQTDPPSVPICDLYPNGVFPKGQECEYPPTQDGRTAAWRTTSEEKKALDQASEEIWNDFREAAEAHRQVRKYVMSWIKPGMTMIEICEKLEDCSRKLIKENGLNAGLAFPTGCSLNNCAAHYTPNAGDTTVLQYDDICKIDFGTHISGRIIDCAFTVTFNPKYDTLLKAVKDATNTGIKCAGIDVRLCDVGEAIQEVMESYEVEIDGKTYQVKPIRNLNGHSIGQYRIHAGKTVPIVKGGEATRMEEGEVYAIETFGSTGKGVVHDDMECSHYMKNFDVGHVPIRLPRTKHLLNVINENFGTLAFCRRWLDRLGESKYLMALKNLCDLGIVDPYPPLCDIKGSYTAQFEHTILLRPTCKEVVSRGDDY
The assay is described as follows: Inhibition of recombinant human MetAP2 activity (Amplex red fluorescence assay). Type of assay: biochemical. As to conditions: manganese Flag-MetAP2, 0.75 mM Methionine-Alanine-Serine substrate, 30 minutes at 25° C., pH 7.5, 1% DMSO. Here is the method:
Compounds are tested for their capacity to inhibit recombinant human MetAP2 activity using the following assay.
Human recombinant Flag-MetAP2 expressed in Sf9 cells followed by affinity purification and EDTA treatment to remove endogenous active site cation is dialysed against MnCl2 to produce the manganese enzyme used in the assay. The assay is carried out for 30 minutes at 25° C. in 50 mM HEPES buffer containing 100 mM NaCl, pH 7.5 the presence of 0.75 mM Methionine-Alanine-Serine (MAS) substrate and 50 μg/ml amino acid oxidase using a dilution of purified MetAP2 giving approximately 50,000 RFU control activity. Cleavage of the substrate by MetAP2 and oxidation of free methionine by amino acid oxidase is detected and quantified using fluorescence generated by Amplex red (10-acetyl-3,7-dihydroxyphenoxazine) in combination with horseradish peroxidase which detects H2O2 released during the oxidation step. The fluorescent signal is detected using a multiwell fluorimeter. Compounds are diluted in DMSO prior to addition to assay buffer, the final DMSO concentration in the assay being 1%.
The IC50 is defined as the concentration at which a given compound achieves 50% inhibition of control. IC50 values are calculated using the XLfit software package (version 2.0.5).
Consider `COc1c(-c2ccoc2)ccc(CS(=O)(=O)N2C3CCCC2CC3)c1C(=O)O` [6-(8-Azabicyclo[3.2.1]octane-8-ylsulphonylmethyl)-3-(furan-3-yl)-2-methoxybenzoic acid], for which the IC50 was more than 2000 nM.
As to `CCc1ccc(C[S+]([O-])c2ccccc2)c(C(=O)O)c1OC` (stereo not shown) [6-(Benzenesulphinylmethyl)-3-ethyl-2-methoxy-benzoic acid], the IC50 was more than 2000 nM.
For `CN(C)CCOc1c(-c2ccoc2)ccc(CS(=O)(=O)c2ccccc2)c1C(=O)O` [6-(Benzenesulphonylmethyl)-2-(2-dimethylaminoethoxy)-3-(3-furanyl)benzoic acid hydrochloride], the IC50 was more than 2000 nM.
As to `NC(=O)COc1c(-c2ccoc2)ccc(CS(=O)(=O)c2ccccc2)c1C(=O)O` [6-(Benzenesulphonylmethyl)-2-(carbamoylmethoxy)-3-(furan-3-yl)-benzoic acid], the IC50 fell in the range of 200 to 2000 nM.
Next, `N#CCOc1c(-c2ccoc2)ccc(CS(=O)(=O)c2ccccc2)c1C(=O)O` [6-(Benzenesulphonylmethyl)-2-(cyanomethoxy)-3-(furan-3-yl)benzoic acid]: less than 200 nM.
With `N#CCNc1c(-c2ccoc2)ccc(CS(=O)(=O)c2ccccc2)c1C(=O)O` [6-(Benzenesulphonylmethyl)-2-(cyanomethylamino)-3-(furan-3-yl)benzoic acid], the IC50 was less than 200 nM.
On to `CCOc1c(-c2ccoc2)ccc(CS(=O)(=O)c2ccccc2)c1C(=O)O` [6-(Benzenesulphonylmethyl)-2-ethoxy-3-(furan-3-yl)benzoic acid], for which the concentration for half-maximal inhibition (IC50) lay within 200 to 2000 nM.
`CCc1c(-c2ccoc2)ccc(CS(=O)(=O)c2ccccc2)c1C(=O)O` [6-(Benzenesulphonylmethyl)-2-ethyl-3-(furan-3-yl)benzoic acid]: the IC50 is 200 to 2000 nM.
Consider `COc1c(-c2cccnc2)ccc(CS(=O)(=O)c2ccccc2)c1C(=O)O` [6-(Benzenesulphonylmethyl)-2-methoxy-3-(3-pyridyl)benzoic acid], for which the half-inhibitory concentration (IC50) is more than 2000 nM.
Regarding `COc1c(-c2cnco2)ccc(CS(=O)(=O)c2ccccc2)c1C(=O)O` [6-(Benzenesulphonylmethyl)-2-methoxy-3-(oxazol-5-yl)benzoic acid], the half-maximal inhibitory concentration (IC50) was in the range of 200 to 2000 nM.
As for `COc1c(-n2cccn2)ccc(CS(=O)(=O)c2ccccc2)c1C(=O)O` [6-(Benzenesulphonylmethyl)-2-methoxy-3-(pyrazol-1-yl)benzoic acid], the IC50 is more than 2000 nM.
Regarding `COc1c(-c2cc[nH]n2)ccc(CS(=O)(=O)c2ccccc2)c1C(=O)O` [6-(Benzenesulphonylmethyl)-2-methoxy-3-(pyrazol-3-yl)benzoic acid], the IC50 is more than 2000 nM.
On to `COc1c(-c2nccs2)ccc(CS(=O)(=O)c2ccccc2)c1C(=O)O` [6-(Benzenesulphonylmethyl)-2-methoxy-3-(thiazol-2-yl)benzoic acid], for which the IC50 was more than 2000 nM.
Turning to `COc1c(-c2cncs2)ccc(CS(=O)(=O)c2ccccc2)c1C(=O)O` [6-(Benzenesulphonylmethyl)-2-methoxy-3-(thiazol-5-yl)benzoic acid], the IC50 lay in the range of 200 to 2000 nM.
Regarding `COc1c(-c2cccs2)ccc(CS(=O)(=O)c2ccccc2)c1C(=O)O` [6-(Benzenesulphonylmethyl)-2-methoxy-3-(thien-2-yl)benzoic acid], the IC50 is more than 2000 nM.
For the compound `COc1c(C)ccc(CS(=O)(=O)c2ccccc2)c1C(=O)O` [6-(Benzenesulphonylmethyl)-2-methoxy-3-methyl-benzoic acid], the half-inhibitory concentration (IC50) is 200 to 2000 nM.
For the compound `COc1c(-c2ccccc2)ccc(CS(=O)(=O)c2ccccc2)c1C(=O)O` [6-(Benzenesulphonylmethyl)-2-methoxy-3-phenylbenzoic acid], the IC50 is more than 2000 nM.
As for `CCCc1ccc(CS(=O)(=O)c2ccccc2)c(C(=O)O)c1OC` [6-(Benzenesulphonylmethyl)-2-methoxy-3-propyl-benzoic acid], the IC50 is more than 2000 nM.
Take `COc1c(-c2ccsc2)ccc(CS(=O)(=O)c2ccccc2)c1C(=O)O` [6-(Benzenesulphonylmethyl)-2-methyoxy-3-(thien-3-yl)benzoic acid]: the IC50 was more than 2000 nM.
On to `COc1c(-c2ccco2)ccc(CS(=O)(=O)c2ccccc2)c1C(=O)O` [6-(Benzenesulphonylmethyl)-3-(furan-2-yl)-2-methoxy-benzoic acid], for which the IC50 was more than 2000 nM.
Take `COc1cc(CS(=O)(=O)c2ccccc2)c(C(=O)O)c(OC)c1-c1ccoc1` [6-(Benzenesulphonylmethyl)-3-(furan-3-yl)-2,4-dimethoxybenzoic acid]: the IC50 is 200 to 2000 nM.
On to `O=C(O)c1c(CS(=O)(=O)c2ccccc2)ccc(-c2ccoc2)c1OCCO` [6-(Benzenesulphonylmethyl)-3-(furan-3-yl)-2-(2-hydroxyethoxy)benzoic acid], for which the IC50 is less than 200 nM.
As for `COCCOc1c(-c2ccoc2)ccc(CS(=O)(=O)c2ccccc2)c1C(=O)O` [6-(Benzenesulphonylmethyl)-3-(furan-3-yl)-2-(2-methoxyethoxy)-benzoic acid], the half-maximal inhibitory concentration (IC50) was more than 2000 nM.
Take `CC#Cc1c(-c2ccoc2)ccc(CS(=O)(=O)c2ccccc2)c1C(=O)O` [6-(Benzenesulphonylmethyl)-3-(furan-3-yl)-2-(prop-1-yn-1-yl)benzoic acid]: the IC50 is more than 2000 nM.
The result for `CNCCOc1c(-c2ccoc2)ccc(CS(=O)(=O)c2ccccc2)c1C(=O)O` [6-(Benzenesulphonylmethyl)-3-(furan-3-yl)-2-[2-(methylamino)-ethoxy]benzoic acid hydrochloride] reads more than 2000 nM.
In the case of `COc1c(-c2ccoc2)ccc(CS(=O)(=O)c2ccccc2)c1C(=O)O` [6-(Benzenesulphonylmethyl)-3-(furan-3-yl)-2-methoxy-benzoic acid], the half-inhibitory concentration (IC50) is less than 200 nM.
On to `CNc1c(-c2ccoc2)ccc(CS(=O)(=O)c2ccccc2)c1C(=O)O` [6-(Benzenesulphonylmethyl)-3-(furan-3-yl)-2-methylamino benzoic acid], for which the IC50 is less than 200 nM.
As to `COc1c(-n2ccnc2)ccc(CS(=O)(=O)c2ccccc2)c1C(=O)O` [6-(Benzenesulphonylmethyl)-3-(imidazol-1-yl)-2-methoxybenzoic acid], the 50% inhibitory concentration (IC50) was more than 2000 nM.
As to `COc1c(-c2cnsc2)ccc(CS(=O)(=O)c2ccccc2)c1C(=O)O` [6-(Benzenesulphonylmethyl)-3-(isothiazol-4-yl)-2-methoxybenzoic acid], the IC50 was in the range of 200 to 2000 nM.
Next, `COc1c(-c2ccon2)ccc(CS(=O)(=O)c2ccccc2)c1C(=O)O` [6-(Benzenesulphonylmethyl)-3-(isoxazol-3-yl)-2-methoxybenzoic acid]: more than 2000 nM; `COc1c(-c2cocn2)ccc(CS(=O)(=O)c2ccccc2)c1C(=O)O` [6-(Benzenesulphonylmethyl)-3-(oxazol-4-yl)-2-methoxybenzoic acid]: more than 2000 nM; `COc1c(Br)ccc(CS(=O)(=O)c2ccccc2)c1C(=O)O` [6-(Benzenesulphonylmethyl)-3-bromo-2-methoxybenzoic acid]: 200 to 2000 nM.
On to `COc1c(C#N)ccc(CS(=O)(=O)c2ccccc2)c1C(=O)O` [6-(Benzenesulphonylmethyl)-3-cyano-2-methoxy-benzoic acid], for which the IC50 is more than 2000 nM.
As for `COc1c(C2CC2)ccc(CS(=O)(=O)c2ccccc2)c1C(=O)O` [6-(Benzenesulphonylmethyl)-3-cyclopropyl-2-methoxy-benzoic acid], the IC50 was in the range of 200 to 2000 nM.
As for `CCc1ccc(CS(=O)(=O)c2ccccc2)c(C(=O)O)c1-c1cc[nH]n1` [6-(Benzenesulphonylmethyl)-3-ethyl-2-(1H-pyrazol-3-yl)benzoic acid], the IC50 was in the range of 200 to 2000 nM.
In the case of `CCc1ccc(CS(=O)(=O)c2ccccc2)c(C(=O)O)c1-c1ccnn1C` [6-(Benzenesulphonylmethyl)-3-ethyl-2-(2-methyl-2H-pyrazol-3-yl)-benzoic acid], the IC50 was more than 2000 nM.
As for `CCc1ccc(CS(=O)(=O)c2ccccc2)c(C(=O)O)c1OC` [6-(Benzenesulphonylmethyl)-3-ethyl-2-methoxy-benzoic acid], the IC50 was 200 to 2000 nM.
In the case of `COc1c(-c2ccns2)ccc(CS(=O)(=O)c2ccccc2)c1C(=O)O` [6-(Benzenesulphonylmethyl-3-(isothiazol-5-yl)-2-methoxy-benzoic acid], the IC50 was less than 200 nM.
Next, `COc1c(-c2ccoc2)ccc(CS(=O)(=O)C2C3CCC2CC3)c1C(=O)O` (stereo not shown) [6-(Bicyclo[2.2.1]heptane-7-ylsulphonylmethyl)-3-(furan-3-yl)-2-methoxybenzoic acid]: 200 to 2000 nM; `COc1c(C2CCOC2)ccc(CS(=O)(=O)C2CC3CCC2CC3)c1C(=O)O` (stereo not shown) [6-(Bicyclo[2.2.2]octane-2-ylsulphonylmethyl)-2-methoxy-3-(tetrahydrofuran-3-yl)benzoic acid]: more than 2000 nM.
As to `COc1c(-c2ccoc2)ccc(CS(=O)(=O)C2CC3CCC2CC3)c1C(=O)O` (stereo not shown) [6-(Bicyclo[2.2.2]octane-2-ylsulphonylmethyl)-3-(furan-3-yl)-2-methoxybenzoic acid], the 50% inhibitory concentration (IC50) was more than 2000 nM.
As for `COc1c(-c2ccoc2)ccc(CS(=O)(=O)C2CCCCC2)c1C(=O)O` [6-(Cyclohexanesulphonylmethyl)-3-(furan-3-yl)-2-methoxybenzoic acid], the IC50 is 200 to 2000 nM.
With `O=C(O)c1c(CS(=O)(=O)c2ccccc2)ccc(-c2ccoc2)c1O` [6-(benzenesulphonylmethyl)-3-(furan-3-yl)-2-hydroxybenzoic acid], the IC50 is more than 2000 nM.

These data come from patent US9067905B2, “Sulphone compounds and methods of making and using same” (Zafgen, Inc., priority 2009, dated 2015).
